Data on 7 compounds can be found in patent US20050054708A1, “Combinations of drugs for the treatment of neoplasms” (priority 2003, published 2005).

One series relates to A549 cells. Description: Anti-proliferation assay (Alamar Blue metabolism).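 Note: 384-well plates, 72–80 h exposure at 37 °C, Alamar Blue fluorescence (ex 530 nm) read 3.5–5 h after dye addition, inhibition relative to mean of vehicle-only wells.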
For series [1] the following is noted: cited from earlier work.

Like-named read-outs stand apart in the source and are kept apart here.

Method for A549 cells: Human non-small cells lung carcinoma cells A549 (ATCC# CCL-185), were grown at 37±0.5° C. and 5% CO2 in DMEM supplemented with 10% FBS, 2 mM glutamine, 1% penicillin, and 1% streptomycin.
Stock solutions (1000×) of each compound were prepared in DMSO and stored at −20° C. Master stock plates of 2-fold or 4-fold serial dilutions of individual compounds were prepared in 384-well plates. Combination matrices of test compounds were generated from these master stock plates by dilution into growth media described above. […] The combination matrices were used immediately and discarded.
The anti-proliferation assays were performed in 384-well plates. 6.6 μL of 10× stock solutions from the combination matrices were added to 40 μL of culture media in assay wells. The tumor cells were liberated from the culture flask using a solution of 0.25% trypsin. Cells were diluted in culture media such that 3000 or 6000 cells were delivered in 20 μL of media into each assay well. Assay plates were incubated for 72-80 hours at 37° C. ±0.5° C. with 5% CO2. Twenty microliters of 20% Alamar Blue warmed to 37° C. ±0.5° C. was added to each assay well following the incubation period. Alamar Blue metabolism was quantified by the amount of fluorescence intensity 3.5-5.0 hours after addition. Quantification, using an LJL Analyst AD reader (LJL Biosystems), was taken in the middle of the well with high attenuation, a 100 msec read time, an excitation filter at 530 nm, and an emission filter at 575 nm. For some experiments, quantification was performed using a Wallac Victor^2 reader. Measurements were taken at the top of the well with stabilized energy lamp control; a 100 msec read time, an excitation filter at 530 nm, and an emission filter at 590 nm.
The percent inhibition (% I) for each well was calculated using the following formula: % I=[(avg. untreated wells−treated well)/(avg. untreated wells)]×100 The average untreated well value (avg. untreated wells) is the arithmetic mean of 40 wells from the same assay plate treated with vehicle alone.
Inhibition of proliferation was measured by anti-proliferation assay as described below after incubation with the test compound(s) for 72 hours.

In the case of `N.N.O=C([O-])C1(C(=O)[O-])CCC1.[Pt+2]` [Carboplatin, carboplatin], the “Percent inhibition of Alamar Blue Metabolism” value is 5.5% with A549 cells (carboplatin 0.15 μM alone); 14.5% in the series with A549 cells (carboplatin 0.30 μM alone); 9.8% in the series on A549 cells (carboplatin 0.59 μM alone); −19.0% with A549 cells (carboplatin 1.19 μM alone); 13.9% with A549 cells (carboplatin 2.38 μM alone); 16.4% with A549 cells (carboplatin 4.75 μM alone). In addition, the results for the “Percent inhibition of Alamar Blue Metabolism” value with A549 cells (carboplatin 9.50 μM alone), with A549 cells (carboplatin 19.00 μM alone) and in the series with A549 cells (carboplatin 38.00 μM alone) were 35.8%, 30.5% and 48.7%, respectively.

`COc1cccc2c1C(=O)c1c(O)c3c(c(O)c1C2=O)C[C@@](O)(C(=O)CO)C[C@@H]3O[C@H]1C[C@H](N)[C@H](O)[C@H](C)O1` [Doxorubicin, doxorubicin]: in the series on A549 cells (Homo sapiens, A549, read-out: Percent inhibition of Alamar Blue Metabolism, doxorubicin 0.0008 μM alone), the inhibition at 0.0008 µM was determined as 32%. Besides, the inhibition at 0.0016 µM with A549 cells (Homo sapiens, A549, read-out: Percent inhibition of Alamar Blue Metabolism, doxorubicin 0.0016 μM alone) was found to be 27.5%. The inhibition at 0.0031 µM in the series on A549 cells (Homo sapiens, A549, read-out: Percent inhibition of Alamar Blue Metabolism, doxorubicin 0.0031 μM alone) was determined as 34.4%. For the same compound, the inhibition at 0.0063 µM in the series with A549 cells (Homo sapiens, A549, read-out: Percent inhibition of Alamar Blue Metabolism, doxorubicin 0.0063 μM alone) turned out to be 40.3%. Also, the inhibition at 0.0125 µM in the series with A549 cells (Homo sapiens, A549, read-out: Percent inhibition of Alamar Blue Metabolism, doxorubicin 0.0125 μM alone) came out at 55.6%. In addition, the inhibition at 0.025 µM in the series with A549 cells (Homo sapiens, A549, read-out: Percent inhibition of Alamar Blue Metabolism, doxorubicin 0.0250 μM alone) turned out to be 63.8%. Further, in the series on A549 cells (Homo sapiens, A549, read-out: Percent inhibition of Alamar Blue Metabolism, doxorubicin 0.0500 μM alone), the inhibition at 0.05 µM came out at 67.5%. The inhibition at 0.1 µM in the series on A549 cells (Homo sapiens, A549, read-out: Percent inhibition of Alamar Blue Metabolism, doxorubicin 0.1000 μM alone) is 63%. Moreover, the inhibition at 0.2 µM with A549 cells (Homo sapiens, A549, read-out: Percent inhibition of Alamar Blue Metabolism, doxorubicin 0.2000 μM alone) turned out to be 62.9%.

As for `CC[C@]1(O)C[C@@H]2CN(CCc3c([nH]c4ccccc34)[C@@](C(=O)OC)(c3cc4c(cc3OC)N(C)[C@H]3[C@@](O)(C(=O)OC)[C@H](OC(C)=O)[C@]5(CC)C=CCN6CC[C@]43[C@@H]65)C2)C1` [Vinblastine, vinblastine], in the series on A549 cells (Homo sapiens, A549, read-out: Percent inhibition of Alamar Blue Metabolism, vinblastine 0.0001 μM alone), the inhibition at 0.0001 µM is -22.3%. In addition, the inhibition at 0.0002 µM with A549 cells (Homo sapiens, A549, read-out: Percent inhibition of Alamar Blue Metabolism, vinblastine 0.0002 μM alone) was -8.3%. For the same compound, in the series on A549 cells (Homo sapiens, A549, read-out: Percent inhibition of Alamar Blue Metabolism, vinblastine 0.0004 μM alone), the inhibition at 0.0004 µM is 7.4%. Further, in the series on A549 cells (Homo sapiens, A549, read-out: Percent inhibition of Alamar Blue Metabolism, vinblastine 0.0008 μM alone), the inhibition at 0.0008 µM is 41.5%. Also, the inhibition at 0.0016 µM in the series with A549 cells (Homo sapiens, A549, read-out: Percent inhibition of Alamar Blue Metabolism, vinblastine 0.0016 μM alone) is 48.4%. Besides, the inhibition at 0.0031 µM with A549 cells (Homo sapiens, A549, read-out: Percent inhibition of Alamar Blue Metabolism, vinblastine 0.0031 μM alone) stood at 61.1%. Further, the inhibition at 0.0063 µM in the series with A549 cells (Homo sapiens, A549, read-out: Percent inhibition of Alamar Blue Metabolism, vinblastine 0.0063 μM alone) was determined as 67.2%. Further, in the series with A549 cells (Homo sapiens, A549, read-out: Percent inhibition of Alamar Blue Metabolism, vinblastine 0.0125 μM alone), the inhibition at 0.0125 µM was 77.2%. Besides, the inhibition at 0.025 µM with A549 cells (Homo sapiens, A549, read-out: Percent inhibition of Alamar Blue Metabolism, vinblastine 0.0250 μM alone) amounted to 85.5%.

For the compound `O=c1[nH]cc(F)c(=O)[nH]1` [5-Fluorouracil, 5-fluorouracil], the inhibition at 0.01 µM with A549 cells (Homo sapiens, A549, read-out: Percent inhibition of Alamar Blue Metabolism, 5-fluorouracil 0.01 μM alone) is 2.9%. Besides, in the series with A549 cells (Homo sapiens, A549, read-out: Percent inhibition of Alamar Blue Metabolism, 5-fluorouracil 0.10 μM alone), the inhibition at 0.1 µM is -0.5%. Also, the inhibition at 0.5 µM with A549 cells (Homo sapiens, A549, read-out: Percent inhibition of Alamar Blue Metabolism, 5-fluorouracil 0.50 μM alone) stood at 40.6%. In addition, the inhibition at 0.75 µM in the series with A549 cells (Homo sapiens, A549, read-out: Percent inhibition of Alamar Blue Metabolism, 5-fluorouracil 0.75 μM alone) is 64.3%. The inhibition at 1 µM in the series with A549 cells (Homo sapiens, A549, read-out: Percent inhibition of Alamar Blue Metabolism, 5-fluorouracil 1.00 μM alone) was 75.4%. Further, the inhibition at 1.5 µM with A549 cells (Homo sapiens, A549, read-out: Percent inhibition of Alamar Blue Metabolism, 5-fluorouracil 1.50 μM alone) was 73.6%. Besides, the inhibition at 2 µM in the series with A549 cells (Homo sapiens, A549, read-out: Percent inhibition of Alamar Blue Metabolism, 5-fluorouracil 2.00 μM alone) was 87.2%. In addition, in the series on A549 cells (Homo sapiens, A549, read-out: Percent inhibition of Alamar Blue Metabolism, 5-fluorouracil 5.00 μM alone), the inhibition at 5 µM was 79.8%. For the same compound, in the series on A549 cells (Homo sapiens, A549, read-out: Percent inhibition of Alamar Blue Metabolism, 5-fluorouracil 10.00 μM alone), the inhibition at 10 µM is 82.4%.

Take `COc1cc([C@@H]2c3cc4c(cc3[C@@H](O[C@@H]3O[C@@H]5CO[C@@H](C)O[C@H]5[C@H](O)[C@H]3O)[C@H]3COC(=O)[C@H]23)OCO4)cc(OC)c1O` [Etoposide, etoposide]: the inhibition at 0.04 µM in the series on A549 cells (Homo sapiens, A549, read-out: Percent inhibition of Alamar Blue Metabolism, etoposide 0.04 μM alone) was found to be 3.9%. Further, in the series on A549 cells (Homo sapiens, A549, read-out: Percent inhibition of Alamar Blue Metabolism, etoposide 0.08 μM alone), the inhibition at 0.08 µM stood at 46.5%. The inhibition at 0.16 µM in the series on A549 cells (Homo sapiens, A549, read-out: Percent inhibition of Alamar Blue Metabolism, etoposide 0.16 μM alone) worked out at 38.7%. For the same compound, the inhibition at 0.31 µM with A549 cells (Homo sapiens, A549, read-out: Percent inhibition of Alamar Blue Metabolism, etoposide 0.31 μM alone) stood at 42.7%. Besides, the inhibition at 0.63 µM in the series on A549 cells (Homo sapiens, A549, read-out: Percent inhibition of Alamar Blue Metabolism, etoposide 0.63 μM alone) was determined as 52.4%. Further, the inhibition at 1.25 µM in the series on A549 cells (Homo sapiens, A549, read-out: Percent inhibition of Alamar Blue Metabolism, etoposide 1.25 μM alone) worked out at 62.8%. For the same compound, in the series with A549 cells (Homo sapiens, A549, read-out: Percent inhibition of Alamar Blue Metabolism, etoposide 2.50 μM alone), the inhibition at 2.5 µM was determined as 76.1%. Further, the inhibition at 5 µM with A549 cells (Homo sapiens, A549, read-out: Percent inhibition of Alamar Blue Metabolism, etoposide 5.00 μM alone) was determined as 77.5%. Also, the inhibition at 10 µM with A549 cells (Homo sapiens, A549, read-out: Percent inhibition of Alamar Blue Metabolism, etoposide 10.00 μM alone) is 79.4%.

Turning to `N=C(N)c1ccc(OCCCCCOc2ccc(C(=N)N)cc2)cc1` [Pentamidine isethionate, 4,4′-diamidino-diphenoxypentane di(β-hydroxyethanesulfonate)], the solubility entry is given as “insoluble” in series [1] (in ether, acetone, and chloroform); “soluble” in series [1] (in water and glycerin).

As for `Nc1ccn([C@@H]2O[C@H](CO)[C@@H](O)C2(F)F)c(=O)n1` [Gemcitabine, gemcitabine], the inhibition at 0.00016 µM in the series on A549 cells (Homo sapiens, A549, read-out: Percent inhibition of Alamar Blue Metabolism, gemcitabine 0.00016 μM alone) worked out at 7.9%. Moreover, the inhibition at 0.00033 µM with A549 cells (Homo sapiens, A549, read-out: Percent inhibition of Alamar Blue Metabolism, gemcitabine 0.00033 μM alone) was 19.1%. For the same compound, the inhibition at 0.00066 µM in the series with A549 cells (Homo sapiens, A549, read-out: Percent inhibition of Alamar Blue Metabolism, gemcitabine 0.00066 μM alone) is 11.3%. Also, in the series with A549 cells (Homo sapiens, A549, read-out: Percent inhibition of Alamar Blue Metabolism, gemcitabine 0.00131 μM alone), the inhibition at 0.00131 µM came out at 12.3%. In the series with A549 cells (Homo sapiens, A549, read-out: Percent inhibition of Alamar Blue Metabolism, gemcitabine 0.00263 μM alone), the inhibition at 0.00263 µM is 13.8%. In the series with A549 cells (Homo sapiens, A549, read-out: Percent inhibition of Alamar Blue Metabolism, gemcitabine 0.00525 μM alone), the inhibition at 0.00525 µM came out at 61.8%. Further, the inhibition at 0.0105 µM with A549 cells (Homo sapiens, A549, read-out: Percent inhibition of Alamar Blue Metabolism, gemcitabine 0.01050 μM alone) was found to be 87.4%. Also, the inhibition at 0.021 µM with A549 cells (Homo sapiens, A549, read-out: Percent inhibition of Alamar Blue Metabolism, gemcitabine 0.02100 μM alone) turned out to be 88.7%. The inhibition at 0.042 µM in the series with A549 cells (Homo sapiens, A549, read-out: Percent inhibition of Alamar Blue Metabolism, gemcitabine 0.04200 μM alone) came to 89.8%.

In general, inhibition refers to the relative decrease from the control value, in per cent.
